Values quoted from earlier work, collected in patent US8197851B2, “Carotenoid composition and method for preparation thereof” (priority 2004, dated 2012).

What was measured:
[1] = system: human epidermis (ex vivo); conditions: topical
[2] = system: natural killer cell (NK) activity; conditions: elderly men
[3] = system: UV light-suppressed immune function (DTH); conditions: young and elderly men
[4] = system: cell surface molecules that initiate immune response; conditions: human trials
[5] = system: mouse epidermis (in vivo); conditions: topical
[6] = system: Gap Junctional Communication (GJC); conditions: independent of Vitamin A activity or antioxidant actions
[7] = levels as high as 800 mg
[8] = system: macular degeneration changes; conditions: 80 mg, versus placebo

Structure (SMILES): CC1=C(/C=C/C(C)=C/C=C/C(C)=C/C=C/C=C(C)/C=C/C=C(C)/C=C/C2=C(C)CCCC2(C)C)C(C)(C)CCC1 [beta-carotene]
- increase of epidermal retinyl esters [1]: 10 fold
- age related decline in natural killer cell (NK) activity [2]: Prevented age related decline in natural killer cell (NK) activity
- UV light-suppressed immune function (DTH) [3]: Prevented UV light-suppressed immune function (DTH)
- expression of cell surface molecules that initiate immune response [4]: stimulated expression of cell surface molecules that initiate immune response
- increase of epidermal retinyl esters [5]: 3 fold
- increase of GJC [6]: most potent in increasing GJC

Structure (SMILES): CC(=O)Oc1c(C)c(C)c2c(c1C)CC[C@@](C)(CCC[C@H](C)CCC[C@H](C)CCCC(C)C)O2 (racemic) [dl-alpha tocopheryl acetate]
- adverse effects [7]: No adverse effects

Structure (SMILES): [Zn] [zinc]
- retarding macular degeneration changes [8]: significantly better than placebo
